The values below come from patent US9169254B2, “Spiroimidazolone derivative” (Chugai Seiyaku Kabushiki Kaisha, priority 2009, dated 2015).

This experiment addresses T1, human PTH1 receptor (Homo sapiens, UniProt Q03431).
T1 sequence (Q03431 27-593): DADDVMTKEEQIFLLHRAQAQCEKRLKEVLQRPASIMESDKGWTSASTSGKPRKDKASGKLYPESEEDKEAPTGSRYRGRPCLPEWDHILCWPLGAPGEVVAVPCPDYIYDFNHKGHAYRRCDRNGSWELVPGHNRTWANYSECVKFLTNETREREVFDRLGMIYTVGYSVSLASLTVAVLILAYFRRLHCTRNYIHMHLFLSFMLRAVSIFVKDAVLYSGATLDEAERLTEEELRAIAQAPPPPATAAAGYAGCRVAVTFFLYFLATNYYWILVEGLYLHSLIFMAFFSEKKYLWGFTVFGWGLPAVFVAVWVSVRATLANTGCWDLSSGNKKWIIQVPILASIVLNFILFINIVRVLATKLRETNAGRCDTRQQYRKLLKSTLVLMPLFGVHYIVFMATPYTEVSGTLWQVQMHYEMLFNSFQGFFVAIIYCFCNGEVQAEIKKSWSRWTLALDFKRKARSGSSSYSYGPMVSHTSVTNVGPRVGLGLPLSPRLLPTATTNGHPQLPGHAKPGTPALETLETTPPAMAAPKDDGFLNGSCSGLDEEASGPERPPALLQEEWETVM
The experiment can be described thus: In vitro cAMP signal activity in HKRK-B7 cells (LLC-PK1 cells overexpressing the human PTH1 receptor). The following applies: HKRK-B7 cells; compound at 1×10^−3 M; cAMP produced as percentage of that produced by hPTH(1-34) at 100 nM. The experiment is classed as cell-based.
As to `O=C1NC(c2ccc(Cl)cc2Cl)=NC12CCN(S(=O)(=O)c1ccc(Cl)cc1)CC2` [Compound 44, 8-(4-Chloro-benzenesulfonyl)-2-(2,4-dichloro-phenyl)-1,3,8-triaza-spiro[4.5]dec-1-en-4-one], the “cAMP production activity (%)” value amounted to 25%.
The figure for `O=C1NC(c2ccc(Cl)cc2Cl)=NC12CCN(S(=O)(=O)c1ccccc1C(F)(F)F)CC2` [Compound 45, 2-(2,4-dichloro-phenyl)-8-(2-trifluoromethyl-benzenesulfonyl)-1,3,8-triaza-spiro[4.5]dec-1-en-4-one] is 22%.
In the case of `CCCCS(=O)(=O)N1CCC2(CC1)N=C(c1ccc(Cl)cc1Cl)NC2=O` [Compound 46, 8-(butane-1-sulfonyl)-2-(2,4-dichloro-phenyl)-1,3,8-triaza-spiro[4.5]dec-1-en-4-one] it was 17%; in that of `O=C1NC(c2ccc(Cl)cc2Cl)=NC12CCN(S(=O)(=O)CCc1cccc3ccccc13)CC2` [Compound 47, 2-(2,4-dichloro-phenyl)-8-(2-naphthalen-1-yl-ethanesulfonyl)-1,3,8-triaza-spiro[4.5]dec-1-en-4-one], 45%; in that of `O=C1NC(c2ccc(Cl)cc2Cl)=NC12CCN(S(=O)(=O)c1cccc3cccnc13)CC2` [Compound 48, 2-(2,4-Dichloro-phenyl)-8-(quinoline-8-sulfonyl)-1,3,8-triaza-spiro[4.5]dec-1-en-4-one], 25%.
The figure for `O=C1NC(c2ccc(Cl)cc2Cl)=NC12CCN(S(=O)(=O)c1ccc(F)c(Cl)c1)CC2` [Compound 49, 8-(3-chloro-4-fluoro-benzenesulfonyl)-2-(2,4-dichloro-phenyl)-1,3,8-triaza-spiro[4.5]dec-1-en-4-one] is 29%.
Take `O=C1NC(c2ccc(Cl)cc2Cl)=NC12CCN(S(=O)(=O)c1cccc(Cl)c1)CC2` [Compound 50, 8-(3-chloro-benzenesulfonyl)-2-(2,4-dichloro-phenyl)-1,3,8-triaza-spiro[4.5]dec-1-en-4-one]: the “cAMP production activity (%)” value amounted to 26%.
In the case of `COC(=O)c1ccccc1S(=O)(=O)N1CCC2(CC1)N=C(C1CCCCC1)NC2=O` [Compound 51, 2-(2-Cyclohexyl-4-oxo-1,3,8-triaza-spiro[4.5]dec-1-ene-8-sulfonyl)-benzoic acid methyl ester] it was 38%.
The figure for `Cc1onc(-c2ccccc2)c1S(=O)(=O)N1CCC2(CC1)N=C(C1CCCCC1)NC2=O` [Compound 52, 2-cyclohexyl-8-(5-methyl-3-phenyl-isoxazole-4-sulfonyl)-1,3,8-triaza-spiro[4.5]dec-1-en-4-one] is 23%; for `O=C1NC(C2CCCCC2)=NC12CCN(S(=O)(=O)c1csc3ccccc13)CC2` [Compound 53, 8-(benzo[b]thiophene-3-sulfonyl)-2-cyclohexyl-1,3,8-triaza-spiro[4.5]dec-1-en-4-one] it is 33%; for `O=C1NC(C2CCCCC2)=NC12CCN(S(=O)(=O)c1cc3ccccc3s1)CC2` [Compound 54, 8-(benzo[b]thiophene-2-sulfonyl)-2-cyclohexyl-1,3,8-triaza-spiro[4.5]dec-1-en-4-one] it is 35%.
In the case of `O=C1NC(C2CCCCC2)=NC12CCN(S(=O)(=O)c1ccc(Cl)s1)CC2` [Compound 55, 8-(5-chloro-thiophene-2-sulfonyl)-2-cyclohexyl-1,3,8-triaza-spiro[4.5]dec-1-en-4-one] it was 55%; in that of `O=C1NC(C2CCCCC2)=NC12CCN(S(=O)(=O)c1cccs1)CC2` [Compound 56, 2-cyclohexyl-8-(thiophene-2-sulfonyl)-1,3,8-triaza-spiro[4.5]dec-1-en-4-one], 55%; in that of `O=C1NC(C2CCCCC2)=NC12CCN(S(=O)(=O)c1cccc3ccccc13)CC2` [Compound 57, 2-cyclohexyl-8-(naphthalene-1-sulfonyl)-1,3,8-triaza-spiro[4.5]dec-1-en-4-one], 35%.
For the compound `Cc1nc(C)c(S(=O)(=O)N2CCC3(CC2)N=C(C2CCCCC2)NC3=O)s1` [Compound 58, 2-cyclohexyl-8-(2,4-dimethyl-thiazole-5-sulfonyl)-1,3,8-triaza-spiro[4.5]dec-1-en-4-one], the “cAMP production activity (%)” value worked out at 39%.
The figure for `Cc1noc(C)c1S(=O)(=O)N1CCC2(CC1)N=C(C1CCCCC1)NC2=O` [Compound 59, 2-cyclohexyl-8-(3,5-dimethyl-isoxazole-4-sulfonyl)-1,3,8-triaza-spiro[4.5]dec-1-en-4-one] is 56%; for `O=C1NC(C2CCCCC2)=NC12CCN(S(=O)(=O)c1ccc3c(c1)OCCO3)CC2` [Compound 60, 2-cyclohexyl-8-(2,3-dihydro-benzo[1,4]dioxine-6-sulfonyl)-1,3,8-triaza-spiro[4.5]dec-1-en-4-one] it is 34%; for `O=C1NC(C2CCCCC2)=NC12CCN(S(=O)(=O)CCc1cccc3ccccc13)CC2` [Compound 61, 2-cyclohexyl-8-(2-naphthalen-1-yl-ethanesulfonyl)-1,3,8-triaza-spiro[4.5]dec-1-en-4-one] it is 43%.
The figure for `COC(=O)c1sccc1S(=O)(=O)N1CCC2(CC1)N=C(C1CCCCC1)NC2=O` [Compound 62, 3-(2-cyclohexyl-4-oxo-1,3,8-triaza-spiro[4.5]dec-1-ene-8-sulfonyl)-thiophene-2-carboxylic acid methyl ester] is 56%.
In the case of `COC(=O)c1cc(C)c(S(=O)(=O)N2CCC3(CC2)N=C(C2CCCCC2)NC3=O)s1` [Compound 63, 5-(2-cyclohexyl-4-oxo-1,3,8-triaza-spiro[4.5]dec-1-ene-8-sulfonyl)-4-methyl-thiophene-2-carboxylic acid methyl ester] it was 51%.
With `Cc1cc(S(=O)(=O)N2CCC3(CC2)N=C(C2CCCCC2)NC3=O)c(C)s1` [Compound 64, 2-cyclohexyl-8-(2,5-dimethyl-thiophene-3-sulfonyl)-1,3,8-triaza-spiro[4.5]dec-1-en-4-one], the “cAMP production activity (%)” value amounted to 45%.
In the case of `O=C1NC(C2CCCCC2)=NC12CCN(S(=O)(=O)c1ccc(Br)s1)CC2` [Compound 65, 8-(5-bromo-thiophene-2-sulfonyl)-2-cyclohexyl-1,3,8-triaza-spiro[4.5]dec-1-en-4-one] it was 65%; in that of `O=C1NC(c2cccc(C(F)(F)F)c2)=NC12CCN(S(=O)(=O)c1ccc(Cl)s1)CC2` [Compound 66, 8-(5-Chloro-thiophene-2-sulfonyl)-2-(3-trifluoromethyl-phenyl)-1,3,8-triaza-spiro[4.5]dec-1-en-4-one], 57%; in that of `O=C1NC(c2cccc(C(F)(F)F)c2)=NC12CCN(S(=O)(=O)c1ccc3ccccc3c1)CC2` [Compound 67, 8-(naphthalene-2-sulfonyl)-2-(3-trifluoromethyl-phenyl)-1,3,8-triaza-spiro[4.5]dec-1-en-4-one], 53%.
In the case of `O=C1NC(c2cccc(C(F)(F)F)c2)=NC12CCN(S(=O)(=O)c1cc3ccccc3s1)CC2` [Compound 68, 8-(benzo[b]thiophene-2-sulfonyl)-2-(3-trifluoromethyl-phenyl)-1,3,8-triaza-spiro[4.5]dec-1-en-4-one] it was 51%; in that of `O=C1NC(c2cccc(C(F)(F)F)c2)=NC12CCN(S(=O)(=O)c1ccc(Br)s1)CC2` [Compound 69, 8-(5-bromo-thiophene-2-sulfonyl)-2-(3-trifluoromethyl-phenyl)-1,3,8-triaza-spiro[4.5]dec-1-en-4-one], 61%.
In the case of `O=C1NC(C2CCCCC2)=NC12CCCN(S(=O)(=O)c1cccc(Cl)c1)CC2` (stereo not shown) [Compound 70, 8-(3-Chloro-benzenesulfonyl)-2-cyclohexyl-1,3,8-triaza-spiro[4.6]undec-1-en-4-one] it was 31%.
For `O=C1NC(C2CCCCC2)=NC12CCCN(S(=O)(=O)c1cccc(Cl)c1)C2` (stereo not shown) [Compound 71, 7-(3-chloro-benzenesulfonyl)-2-cyclohexyl-1,3,7-triaza-spiro[4.5]dec-1-en-4-one], the “cAMP production activity (%)” value is 3.7%.
The figure for `O=C1NC(C2CCCCC2)=NC12CCN(S(=O)(=O)c1cccc(Cl)c1)C2` (stereo not shown) [Compound 72, 7-(3-chloro-benzenesulfonyl)-2-cyclohexyl-1,3,7-triaza-spiro[4.4]non-1-en-4-one] is 1.5%; for `Cc1cc(C(=O)N(C)C)ccc1CCS(=O)(=O)N1CCC2(CC1)N=C(c1ccc(Cl)cc1Cl)NC2=O` [Compound 73, 4-{2-[2-(2,4-Dichloro-phenyl)-4-oxo-1,3,8-triaza-spiro[4.5]dec-1-ene-8-sulfonyl]-ethyl}-3,N,N-trimethyl-benzamide] it is 66%.
In the case of `Cc1cc(C(=O)N(C)C)ccc1CCS(=O)(=O)N1CCC2(CC1)N=C(C(C)(C)C)NC2=O` [Compound 74, 4-[2-(2-tert-butyl-4-oxo-1,3,8-triaza-spiro[4.5]dec-1-ene-8-sulfonyl)-ethyl]-3,N,N-trimethyl-benzamide] it was 48%.
